Converted amounts (≈) assume the structure as drawn. Like-named read-outs stand apart in the source and are kept apart here.
How the values were obtained:
[1] = Compound solubility in water; format: physicochemical
[2] = biological target: T1, glucocerebrosidase (Gcase) (Homo sapiens, UniProt P04062); experiment: Glucocerebrosidase (Gcase) activation assay, 4-methylumbelliferyl-beta-D-glucopyranoside substrate, with saposin C; format: biochemical
T1 sequence (P04062 40-536): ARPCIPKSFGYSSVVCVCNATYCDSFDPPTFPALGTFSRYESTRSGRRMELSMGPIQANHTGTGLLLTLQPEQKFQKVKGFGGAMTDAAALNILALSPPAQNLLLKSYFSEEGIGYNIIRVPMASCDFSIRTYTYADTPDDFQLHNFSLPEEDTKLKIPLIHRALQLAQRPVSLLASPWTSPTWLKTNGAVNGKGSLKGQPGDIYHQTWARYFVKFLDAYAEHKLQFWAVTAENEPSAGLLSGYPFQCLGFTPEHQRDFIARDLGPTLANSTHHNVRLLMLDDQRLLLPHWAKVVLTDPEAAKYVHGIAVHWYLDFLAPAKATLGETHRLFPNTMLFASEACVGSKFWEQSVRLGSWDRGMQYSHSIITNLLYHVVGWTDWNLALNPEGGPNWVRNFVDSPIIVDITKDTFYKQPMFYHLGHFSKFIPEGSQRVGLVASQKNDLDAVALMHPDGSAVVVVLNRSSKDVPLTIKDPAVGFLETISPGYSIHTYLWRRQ
Summary of the method: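 Compounds tested at 1.0 and 0.1 μM, then in 8-point 3-fold curves, were pre-incubated 30 min at room temperature with 10 nM GCase plus 100 nM saposin C in PS/triton micelles, pH 4.7. Reaction with substrate (2 mM in micelles before mixing) ran 15 min; stopped at pH 12.5, read at ex 365/em 440 nm.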

[3] = 0.1 μM test compound, read-out: Percent Gcase Activation 0.1 μM Test Compound
[4] = 1 μM test compound, read-out: Percent Gcase Activation 1 μM Test Compound
[5] = test compound at 0.1 μM, read-out: Percent Gcase Activation, 0.1 μM Test Compound
[6] = test compound at 1.0 μM, read-out: Percent Gcase Activation, 1 μM Test Compound

Compound | solubility [1] [µg/mL] | activation at 0.1 µM [2, 3] [%] | activation at 1 µM [2, 4] [%] | solubility ([1]; in water) [µg/mL] | activation at 0.1 µM [2, 5] [%] | activation at 1 µM [2, 6] [%]
CCc1cc(-c2cccc(F)c2)nc2c(C(=O)N[C@@H](C)C3CC3)ncn12 [III-113] | 1.7 (≈ 4.82 µM) | > 20 | > 60 |  |  | 
C#CC(NC(=O)c1ncn2c(C)cc(-c3ccccc3C#N)nc12)C(F)(F)F (stereo not drawn) [IV-23] |  |  |  | 0.6 (≈ 1.57 µM) | 10 to 20 | > 60
Cc1cc(-c2occc2C#N)nc2c(C(=O)NC(C3CC3)C(F)(F)F)ncn12 (stereo not drawn) [IV-82] |  |  |  | 1.9 (≈ 4.88 µM) | > 20 | > 60
Cc1cc(-c2cccnc2)nc2c(C(=O)N[C@H]3CC[C@H](OCC(C)C)CC3)ncn12 [III-66] | 16 (≈ 39.3 µM) | < 10 | 30 to 60 |  |  | 
COCCOc1cc(C)n2cnc(C(=O)N[C@@H](C)C3CC3)c2n1 [III-128] | 34.1 (≈ 107 µM) | < 10 | < 30 |  |  | 
Cc1cc(-c2ccncc2)nc2c(C(=O)NC(CC(C)C)C3CC3)ncn12 (stereo not drawn) [III-28] | 19.7 (≈ 54.2 µM) | < 10 | > 60 |  |  | 
Cc1cc(-c2ccccn2)nc2c(C(=O)NC(C3CC3)C(F)(F)F)ncn12 (stereo not drawn) [III-72] | 4.7 (≈ 12.5 µM) | 10 to 20 | > 60 |  |  | 
Cc1cc(-c2cncnc2)nc2c(C(=O)NC(C)(C)C3CC3)ncn12 [III-57] | 23.4 (≈ 69.6 µM) | < 10 | < 30 |  |  | 
COCc1cc(C)nc2c(C(=O)NC(c3ccc(F)cc3)C(F)(F)F)ncn12 (stereo not drawn) [III-23] | 10.9 (≈ 27.5 µM) | > 20 | > 60 |  |  | 
CCOc1cc(C)n2cnc(C(=O)NC(c3ccc(F)cc3)C(F)(F)F)c2n1 (stereo not drawn) [III-21] | 1.1 (≈ 2.78 µM) | > 20 | > 60 |  |  | 
Cc1cc(C(=O)Nc2ccccc2)nc2c(C(=O)NC(C3CC3)C(F)(F)F)ncn12 (stereo not drawn) [IV-100] |  |  |  | 6.2 (≈ 14.9 µM) | < 10 | < 30
Cc1cc(C)n2cnc(C(=O)NC(C)C3CCCCC3)c2n1 (stereo not drawn) [III-9] | 14.3 (≈ 47.6 µM) | < 10 | > 60 |  |  | 
Cc1cc(-c2ccc(F)c(F)c2)nc2c(C(=O)NC(C)C3CC3)ncn12 (stereo not drawn) [III-85] | 1.2 (≈ 3.37 µM) | > 20 | > 60 |  |  | 
C#CC(C)(C)NC(=O)c1ncn2c(C)cc(-c3cccc(OC)c3)nc12 [III-157] | 2.1 (≈ 6.03 µM) | > 20 | > 60 |  |  | 
COc1ccc(-c2cc(C)n3cnc(C(=O)NC(C4CC4)C(F)(F)F)c3n2)cc1F (stereo not drawn) [IV-70] |  |  |  | 1.5 (≈ 3.55 µM) | > 20 | > 60
COc1cc(C)n2cnc(C(=O)NC(c3ccc(F)cc3)C(F)(F)F)c2n1 (stereo not drawn) [III-19] | 8.7 (≈ 22.8 µM) | 10 to 20 | > 60 |  |  | 
Cc1cc(-c2ccc3c(c2)OCO3)nc2c(C(=O)NC(C)C(F)(F)F)ncn12 (stereo not drawn) [IV-76] |  |  |  | 1.2 (≈ 3.06 µM) | > 20 | > 60
CO[C@H]1CC[C@@H](C(C)(C)NC(=O)c2ncn3c(C)cc(-c4cccnc4)nc23)CC1 [III-74] | 19.3 (≈ 47.4 µM) | < 10 | 30 to 60 |  |  | 
Cc1cc(-c2cccc(C#N)c2)nc2c(C(=O)N[C@@H](C)C3CC3)ncn12 [III-150] | 10.1 (≈ 29.2 µM) | 10 to 20 | > 60 |  |  | 
Cc1cc(-c2ccc3ocnc3c2)nc2c(C(=O)NC(C)C(F)(F)F)ncn12 (stereo not drawn) [IV-73] |  |  |  | 2.1 (≈ 5.39 µM) | > 20 | > 60
Cc1cc(-c2ccc3nncn3c2)nc2c(C(=O)NC(C3CC3)C(F)(F)F)ncn12 (stereo not drawn) [IV-43] |  |  |  | 17.5 (≈ 42.1 µM) | < 10 | < 30
Cc1cc(OC2CC2)nc2c(C(=O)NC(C3CC3)C3CC3)ncn12 [III-179] | 14.3 (≈ 43.8 µM) | < 10 | 30 to 60 |  |  | 
Cc1cc(-c2cccc(F)c2)nc2c(C(=O)N[C@H](C3CC3)C(F)(F)F)ncn12 [IV-19] |  |  |  | 0.7 (≈ 1.78 µM) | > 20 | > 60
Cc1cc(-c2ccc(C#N)s2)nc2c(C(=O)NC(C3CC3)C(F)(F)F)ncn12 (stereo not drawn) [IV-86] |  |  |  | 3.6 (≈ 8.88 µM) | > 20 | > 60
Cc1cc(N2CCC(C)(C)C2=O)nc2c(C(=O)NC(C3CC3)C(F)(F)F)ncn12 (stereo not drawn) [III-144] | 20.5 (≈ 50.1 µM) | < 10 | 30 to 60 |  |  | 

Compound | solubility [1] [µg/mL] | activation at 0.1 µM [2, 3] [%] | activation at 1 µM [2, 4] [%] | solubility ([1]; in water) [µg/mL] | activation at 0.1 µM [2, 5] [%] | activation at 1 µM [2, 6] [%]
Cc1cc(N2CCC(F)(F)CC2)nc2c(C(=O)NC(C)(C)C3CC3)ncn12 [III-118] | 9.7 (≈ 25.7 µM) | < 10 | 30 to 60 |  |  | 
Cc1cc(-c2cccnc2)nc2c(C(=O)N[C@@H](C)c3ccccc3F)ncn12 [III-45] | 5 (≈ 13.3 µM) | < 10 | 30 to 60 |  |  | 
COc1cc(F)cc(-c2cc(C)n3cnc(C(=O)N[C@H](C)C(F)(F)F)c3n2)c1 [IV-58] |  |  |  | 2.3 (≈ 5.8 µM) | > 20 | > 60
Cc1cc(-c2ccc3c(c2)OCO3)nc2c(C(=O)N[C@H](C)C(F)(F)F)ncn12 [IV-77] |  |  |  | 1.3 (≈ 3.31 µM) | > 20 | > 60
Cc1cc(-c2ccc(F)cc2)nc2c(C(=O)N[C@H](C3CC3)C(F)(F)F)ncn12 [IV-45] |  |  |  | 2.5 (≈ 6.37 µM) | > 20 | > 60
Cc1cc(-c2cccc3nccn23)nc2c(C(=O)NC(C3CC3)C(F)(F)F)ncn12 (stereo not drawn) [IV-25] |  |  |  | 3.3 (≈ 7.96 µM) | < 10 | < 30
C#CC(C)(C)NC(=O)c1ncn2c(C)cc(-c3cc(F)cc(OC)c3)nc12 [III-187] | 0.9 (≈ 2.46 µM) | > 20 | > 60 |  |  | 
Cc1cc(-c2ccccc2)nc2c(C(=O)NC(C)C3CC3)ncn12 (stereo not drawn) [III-86] | 13.1 (≈ 40.9 µM) | > 20 | > 60 |  |  | 
Cc1cc(-c2cccc(F)c2C#N)nc2c(C(=O)NC(C3CC3)C(F)(F)F)ncn12 (stereo not drawn) [IV-38] |  |  |  | 0.4 (≈ 0.958 µM) | > 20 | > 60
Cc1cc(-c2ccc(F)cc2)nc2c(C(=O)NC(C)(C)C)ncn12 [III-88] | 2 (≈ 6.13 µM) | < 10 | > 60 |  |  | 
Cc1cc(-c2cccc3ncnn23)nc2c(C(=O)NC(C3CC3)C(F)(F)F)ncn12 (stereo not drawn) [IV-41] |  |  |  | 3.5 (≈ 8.43 µM) | < 10 | 30 to 60
Cc1cc(C)n2cnc(C(=O)N[C@@H]3[C@@H]4CC[C@H]3C[C@@H](OC(C)(C)C)C4)c2n1 [IV-11] |  |  |  | 4.9 (≈ 13.2 µM) | > 20 | > 60
CNc1cc(C)nc2c(C(=O)NC(c3ccc(F)cc3)C(F)(F)F)ncn12 (stereo not drawn) [III-18] | 1.7 (≈ 4.46 µM) | > 20 | > 60 |  |  | 
Cc1cc(-c2cnccn2)nc2c(C(=O)NC(C)(C)C3CC3)ncn12 [III-56] | 16.2 (≈ 48.2 µM) | < 10 | 30 to 60 |  |  | 
Cc1cc(-c2ccc3c(c2)OCO3)nc2c(C(=O)NC(C3CC3)C(F)(F)F)ncn12 (stereo not drawn) [IV-75] |  |  |  | 0.5 (≈ 1.2 µM) | > 20 | > 60
COc1ccc(F)cc1-c1cc(C)n2cnc(C(=O)NC(C3CC3)C(F)(F)F)c2n1 (stereo not drawn) [IV-71] |  |  |  | 1.5 (≈ 3.55 µM) | > 20 | > 60
COc1ccc(F)c(-c2cc(C)n3cnc(C(=O)NC(C)C(F)(F)F)c3n2)c1 (stereo not drawn) [IV-104] |  |  |  | 0.7 (≈ 1.77 µM) | > 20 | > 60
Cc1cc(-c2cccc(F)c2)nc2c(C(=O)NC(C3CC3)C3CC3)ncn12 [III-133] | 1.5 (≈ 4.12 µM) | > 20 | > 60 |  |  | 
Cc1cc(-c2ccc3scnc3c2)nc2c(C(=O)NC(C3CC3)C(F)(F)F)ncn12 (stereo not drawn) [IV-49] |  |  |  | 0.6 (≈ 1.39 µM) | > 20 | > 60
COc1cc(F)cc(-c2cc(C)n3cnc(C(=O)N[C@@H](C)C(F)(F)F)c3n2)c1 [IV-59] |  |  |  | 2.2 (≈ 5.55 µM) | > 20 | > 60
CCCCO[C@H]1C[C@H]2CC[C@@H](C1)[C@H]2NC(=O)c1ncn2c(C)cc(COC)nc12 [IV-4] |  |  |  | 16.4 (≈ 40.9 µM) | > 20 | > 60
Cc1cc(C)n2cnc(C(=O)N[C@@H](C)C3CC3)c2n1 [III-6] | 24.4 (≈ 94.5 µM) | < 10 | < 30 |  |  | 
Cc1cc(-c2sccc2C#N)nc2c(C(=O)NC(C3CC3)C(F)(F)F)ncn12 (stereo not drawn) [IV-37] |  |  |  | 2.4 (≈ 5.92 µM) | > 20 | > 60
Cc1cc(-c2ccc(F)c(Cl)n2)nc2c(C(=O)N[C@@H](C)C3CC3)ncn12 [III-108] | 14.5 (≈ 38.8 µM) | < 10 | 30 to 60 |  |  | 
Cc1cc(-c2cccc(Cl)n2)nc2c(C(=O)N[C@@H](C)C3CC3)ncn12 [III-103] | 3.8 (≈ 10.7 µM) | < 10 | > 60 |  |  | 

From patent publication US9920061B2, “Imidazo[1,5-A]pyrimidinyl carboxamide compounds and their use in the treatment of medical disorders” (Lysosomal Therapeutics Inc., priority 2016, dated 2018)
